Source: patent publication US20070248543A1 (ZGene A/S, priority 2004, published 2007)
“And” between values parts separate entries of the source, which are not always exact repeats. Identical values can stand only once. Like-named read-outs stand apart in the source and are kept apart here.

How the values were obtained:
GgdCK1 = assay: Steady state kinetics of purified recombinant GgdCK1; type: biochemical, Gallus gallus
Description: (§1) Purification of the Recombinant Enzymes. Transformants (KY895 cells transfected with PZG469 (GgcCK1) and PZG657 (GgdCK2)) were grown in LB medium containing […] ampicillin to A600 0.5-0.6, and the expression was induced with […] IPTG for 4 h at 25° C. […] The cells were homogenized using a French Press, subjected to centrifugation at 12,000×g for 30 minutes (4° C.), filtered through a […] Whatman glass microfiber filter and a […] cellulose acetate filter, and loaded onto the column (2 ml column packed with Glutathione-Sepharose 4 FF, Pharmacia) equilibrated in binding buffer A. Unbound material was removed by washing with 10 column volumes of buffer A. Subsequently the column was washed with 5 ml buffer A containing 10 mM ATP/MgCl2, and incubated for 1 h at room temperature and then 30 min at 4° C. to remove strongly bound contaminating proteins. Afterwards the column was washed again with 10 ml of buffer A and 2 ml of thrombin (50 U/ml) solution were applied on the column. The column was gently shaken overnight at 4° C. to cleave the recombinant protein from the GST-tag. Pure protein was eluted from the column in buffer A. Uncleaved fusion protein was eluted with buffer B (50 mM Tris-HCl pH 8, 10% glycerol, 0,1 % Triton X-100, 10 mM gluthatione reduced). Before storage of enzyme-containing fractions at −80° C., glycerol, Triton X-100, and dithiothreitol were added to 8%, 1% and 1 mM, respectively. Proteins were analyzed on Agilent 2100 Bioanalyzer using Protein Assay Chips.
Enzyme Assays. Bacteria or cell lines were grown as described, harvested and stored at −80° C. until activity testing. Cells were submitted to brief sonication in extraction buffer (50 mM Tris/HCl pH 7.5, 1 mM DTT, 10% (v/v) glycerol, 1% (v/v) Triton X-100, protease inhibitor cocktail Complete™ from Roche Diagnostics). Deoxyribonucleoside kinase activities were determined by initial velocity measurements based on four time samples by the DE-81 filter paper assay using tritium-labelled nucleoside substrates. App. 20 μg extracts were used in the assays. […] One unit of deoxyribonucleoside kinase activity is defined as 1 μmol of the corresponding monophosphate formed per minute. The obtained data were fitted to the Michaelis-Menten equation v=Vmax·[S]/(Km+[S]).

[1] = system: deoxyribonucleoside kinases in DT 40 chicken cell line crude extract; assay: Deoxyribonucleoside kinase activity in crude extracts of DT 40 cells (DE-81 filter paper assay); type: biochemical; conditions: substrate at 200 μM; triplicates, mean with standard deviation
Description: Deoxribonucleoside kinase activities in DT 40 chicken cell line DT 40 cells were grown in RPMI-1640 medium (Gibco) supplemented with 10% foetal calf serum, 1% chicken serum, 2 mM L-glutamine, 10 uM mercaptoethanol and penicillin-streptomycin mixture […], harvested and stored at −80° C. until activity testing. Cells were submitted to brief sonication in extraction buffer (50 mM Tris/HCl pH 7.5, 1 mM DTT, 10% (v/v) glycerol, 1% (v/v) Triton X-100, protease inhibitor cocktail (Complete™ from Roche Diagnostics). Deoxyribonucleoside kinase activities were determined in the DT 40 extracts by initial velocity measurements based on four time samples by the DE-81 filter paper assay using tritium-labelled nucleoside substrates. App. 20 μg extracts were used in the assays. The assay was done as described by Munch-Petersen et al. [Munch-Petersen, B., Knecht, W., Lenz, C., Sondergaard, L. & Piskur, J: Functional expression of a multisubstrate deoxyribonucleoside kinase from Drosophila melanogaster and its C-terminal deletion mutants; J.Biol.Chem. 2000 275 6673-6679].

[2] = system: deoxyribonucleoside kinases in MCF-7 cell crude extract; assay: Deoxyribonucleoside kinase activity in crude extracts of MCF-7 cells; type: biochemical, human; conditions: substrate at 200 μM; triplicates, mean with standard deviation
Description: Cells were submitted to brief sonication in extraction buffer (50 mM Tris/HCl pH 7.5, 1 mM DTT, 10% (v/v) glycerol, 1% (v/v) Triton X-100, protease inhibitor cocktail (CompleteTM from Roche Diagnostics). […] App. 20 μg extracts were used in the assays. The assay was done as described by Munch-Petersen et al. [Munch-Petersen, B., Knecht, W., Lenz, […]: Functional expression of a multisubstrate deoxyribonucleoside kinase from Drosophila melanogaster and its C-terminal deletion mutants; J.Biol.Chem. 2000 275 6673-6679].

[3] = system: MCF-7 (breast cancer cell line); assay: Cell proliferation assay (XTT cytotoxicity) of retrovirus-transduced MCF-7 cells; type: cell-based; conditions: Homo sapiens, MCF7, read-out: IC50 value of ara-G, MCF-7 parental cell line
Description: HE 293 T packaging cells (ATCC CRL-11268) were cultured at 37° C. in OPTIMEM 1 medium (Life Technologies, Inc.) The constructed pLCXSN plasmid vector was transfected into the packaging cells using LipofectAMINE PLUS (Life Technologies, Inc.) according to the protocol provided by the supplier. The medium from the transfected cells was collected 48 hours after transfection, filtered through a 0.45 µm filter, pelleted by ultracentrifugation (50.000×g, 90 minutes at 4° C.) and dissolved in DMEM (Cambrex, Blo Whittaker Cat. No. 12-741-F).
The virus containing medium was subsequently used to transduce the cancer cell lines with a MOI of 5. […]
Cells were plated at densities range of 1.500-3.500 cells/well in 96-well plates coated with Poly-L-lysine (Sigma Cat. No. P6282) Gemcitabine (obtained from Orifarm A/S—DK) was added after 24 hours of incubation at 37° C., 5% CO2, and the medium containing the nucleoside analog. […] The IC50 value of the investigated drug/compound was calculated as the mean of these experiments using SigmaPlot® (SPSS Science, Dyrberg Trading—DK).
The sensitivity of the untransduced cells, and of the cells transduced with either the retroviral vector alone ore the vector containing chicken kinases for Gemcitabine and Ara-G was determined.

human dGK = biological target: T1, human dGK (Homo sapiens, UniProt Q16854); conditions: Zhu et al. 1998; cited from earlier work
T1 sequence (Q16854 40-277): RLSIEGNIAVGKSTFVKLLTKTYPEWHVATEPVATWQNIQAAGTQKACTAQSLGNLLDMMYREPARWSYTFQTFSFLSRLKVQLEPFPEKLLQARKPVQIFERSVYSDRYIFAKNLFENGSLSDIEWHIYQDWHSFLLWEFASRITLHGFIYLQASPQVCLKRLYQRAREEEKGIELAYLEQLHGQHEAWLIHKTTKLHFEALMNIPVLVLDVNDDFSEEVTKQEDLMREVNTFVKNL

HsdCK = HsdCK (Homo sapiens, UniProt P27707); conditions: cited from earlier work; for Kcat / Vmax: literature data
GgdCK2 = GgdCK2 (Gallus gallus, UniProt Q5ZJM7); assay: Steady state kinetics of purified recombinant GgdCK2
Description: as §1
Enzyme Assays. Bacteria or cell lines were grown as described, harvested and stored at −80° C. until activity testing. Cells were submitted to brief sonication in extraction buffer (50 mM Tris/HCl pH 7.5, 1 mM DTT, 10% (v/v) glycerol, 1% (v/v) Triton X-100, protease inhibitor cocktail Complete™ from Roche Diagnostics). Deoxyribonucleoside kinase activities were determined by initial velocity measurements based on four time samples by the DE-81 filter paper assay using tritium-labelled nucleoside substrates. App. 20 μg extracts were used in the assays. […]

[4] = system: deoxyribonucleoside kinase expressed in E. coli TOP10 extracts; assay: Deoxyribonucleoside kinase activity in extracts of transformed TOP10 cells; type: biochemical; conditions: approximate
[5] = data from Bohman 1988 and Habteyesus 1991, read-out: Km

HsdCK, sequence (P27707 whole entry): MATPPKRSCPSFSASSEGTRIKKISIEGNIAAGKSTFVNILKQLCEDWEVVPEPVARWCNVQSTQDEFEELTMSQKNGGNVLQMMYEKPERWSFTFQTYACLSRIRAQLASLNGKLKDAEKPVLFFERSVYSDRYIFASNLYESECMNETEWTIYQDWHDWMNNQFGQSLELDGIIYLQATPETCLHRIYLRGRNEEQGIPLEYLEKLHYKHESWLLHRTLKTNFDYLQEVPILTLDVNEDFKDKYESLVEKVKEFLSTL
GgdCK2, sequence (Q5ZJM7 whole entry): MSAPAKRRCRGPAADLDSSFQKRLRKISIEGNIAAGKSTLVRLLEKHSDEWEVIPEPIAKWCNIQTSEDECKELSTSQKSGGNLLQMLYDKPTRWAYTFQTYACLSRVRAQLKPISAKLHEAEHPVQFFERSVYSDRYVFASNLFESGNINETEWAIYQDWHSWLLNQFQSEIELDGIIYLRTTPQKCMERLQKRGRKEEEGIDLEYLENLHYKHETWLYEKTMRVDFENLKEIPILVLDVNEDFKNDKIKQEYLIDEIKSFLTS

Km (GgdCK1) | Compound | Deoxyribonucleoside kinase activity in crude extract of DT 40 cells [1] [mU/mg] | Deoxyribonucleoside kinase activity in crude extract of MCF-7 cells [2] [mU/mg] | Kcat (GgdCK1) [s⁻¹] | Vmax (GgdCK1) [nm/min/mg] | other results
– | Cc1cn([C@H]2C[C@H](O)[C@@H](CO)O2)c(=O)[nH]c1=O [dThd, thymidine] | 0.1 ± 0.03 | 0.07 ± 0.00 | – | – | –
– | Nc1nc2c(ncn2[C@@H]2O[C@H](CO)[C@@H](O)[C@@H]2O)c(=O)[nH]1 [ara-G, 9-beta-D-arabinofuranosylguanine] | – | – | – | – | IC50 [3]: 1580 ± 158 µM; Km (human dGK): 8 µM; relative phosphorylation higher by recombinant human dGK than by recombinant human dCK (human dGK): 76 times
3.3 ± 0.4 µM | Nc1nc(Cl)nc2c1ncn2[C@H]1C[C@H](O)[C@@H](CO)O1 [CdA, 2-chloro-2′-deoxyadenosine] | – | – | 0.64 | 1273 ± 38 | –
6.3 ± 0.5 µM | Nc1ccn([C@@H]2O[C@H](CO)[C@@H](O)C2(F)F)c(=O)n1 [Gemcitabine, 2′,2′-difluorodeoxycytidine] | – | – | 1.37 | 2712 ± 357 | Km (HsdCK; [5]): 60 µM; Kcat (HsdCK): 0.05 s⁻¹; Vmax (HsdCK): 100 nm/min/mg
15.3 ± 2.3 µM | Nc1ccn([C@@H]2O[C@H](CO)[C@@H](O)[C@@H]2O)c(=O)n1 [araC, cytidine-arabinoside] | – | – | 0.44 | 878 ± 33 | Kcat (GgdCK2): 0.34 s⁻¹; Km (GgdCK2): 1470 ± 664 µM; Vmax (GgdCK2): 649 ± 267 nm/min/mg
– | GgdCK1: Gallus gallus deoxycytidine kinase 1, 257 amino acid residues, SEQ ID No. 2 | – | – | – | – | dCyd phosphorylation efficiency [4]: ~8 mU
4.8 µM | Nc1ccn([C@H]2C[C@H](O)[C@@H](CO)O2)c(=O)n1 [dCyd, deoxycytidine] | 0.09 ± 0.01 | 0.01 ± 0.00 | 0.30 | 589 ± 34 | –
61.8 ± 11.1 µM | Nc1nc2c(ncn2[C@H]2C[C@H](O)[C@@H](CO)O2)c(=O)[nH]1 [dGuo, deoxyguanosine] | 0.09 ± 0.00 | 0.01 ± 0.00 | 0.20 | 394 ± 37 | Km (HsdCK; [5]): 100 µM; Kcat (HsdCK): 0.33 s⁻¹; Vmax (HsdCK): 600 nm/min/mg; Km (human dGK): 7.6 µM
– | Nc1nc(F)nc2c1ncn2[C@@H]1O[C@H](CO)[C@@H](O)[C@@H]1O [F-araA, 2-Fluoroadenine 9-beta-D-Arabinofuranoside] | – | – | – | – | Km (HsdCK; data from Bohman 1988 and Habteyesus 1991): 200 µM

Compound | Km (GgdCK1) | Deoxyribonucleoside kinase activity in crude extract of DT 40 cells [1] [mU/mg] | Deoxyribonucleoside kinase activity in crude extract of MCF-7 cells [2] [mU/mg] | Kcat (GgdCK1) [s⁻¹] | Vmax (GgdCK1) [nm/min/mg] | other results
Nc1ncnc2c1ncn2[C@H]1C[C@H](O)[C@@H](CO)O1 [dAdo, deoxyadenosine] | 79 µM and 82 µM | 0.1 ± 0.01 | 0.05 ± 0.00 | – | – | –
